Laboratory results taken from patent US11634391B2, “Compounds which are inhibitors of Notum” (UCL BUSINESS LTD, priority 2018, dated 2023).
pIC50: −log10 of the molar value. Counter-ions that a name gives are not always drawn.

Target: notum carboxyesterase enzyme (Homo sapiens (Human), UniProt Q6P988)
Assay: Biochemical Notum Enzymatic Activity Assay (OPTS substrate, fluorescence)
Conditions: 2 μM OPTS solution, 2.38 nM notum enzyme solution, 1 hour incubation at room temperature, fluorescence ex 485 nm / em 520 nm; n≥2
Description: Plate layout and measured fluorescence values were input into Dotmatics Studies data management tool.

notum carboxyesterase enzyme, sequence (Q6P988 20-496): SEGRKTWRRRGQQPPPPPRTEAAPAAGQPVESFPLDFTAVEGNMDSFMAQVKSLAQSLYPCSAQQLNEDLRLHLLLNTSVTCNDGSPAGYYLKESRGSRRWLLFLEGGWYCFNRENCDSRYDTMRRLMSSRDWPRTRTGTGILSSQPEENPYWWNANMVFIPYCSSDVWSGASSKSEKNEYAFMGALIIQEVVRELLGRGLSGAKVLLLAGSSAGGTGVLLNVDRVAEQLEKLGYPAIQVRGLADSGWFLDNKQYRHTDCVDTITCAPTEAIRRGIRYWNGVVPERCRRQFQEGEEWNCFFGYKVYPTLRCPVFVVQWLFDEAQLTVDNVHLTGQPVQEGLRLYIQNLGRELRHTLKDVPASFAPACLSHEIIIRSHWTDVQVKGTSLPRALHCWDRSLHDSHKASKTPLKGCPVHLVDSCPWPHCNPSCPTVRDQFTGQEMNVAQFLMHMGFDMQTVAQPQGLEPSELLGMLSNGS

pIC50 | Compound
7.05 | Cc1nnc(-c2ccc(C3CC3)c(C(F)(F)F)c2)o1 [Compound 190, 2-[4-cyclopropyl-3-(trifluoromethyl)phenyl]-5-methyl-1,3,4-oxadiazole]
7.17 | Cn1nc(-c2ccc(Cl)c(C(F)(F)F)c2Cl)oc1=O [Compound 245, 5-(2,4-dichloro-3-(trifluoromethyl)phenyl)-3-methyl-1,3,4-oxadiazol-2(3H)-one]
4.20 | OCc1cn(-c2ccccc2F)nn1 [Compound 273, (1-(2-Fluorophenyl)-1H-1,2,3-triazol-4-yl)methanol]
5.31 | FC(F)(F)c1cccc(-n2cnnn2)c1 [Compound 213, 1-[3-(trifluoromethyl)phenyl]tetrazole]
5.39 | FC(F)(F)c1cc(-c2nnco2)ccc1C1COC1 [Compound 284, 2-(4-(oxetan-3-yl)-3-(trifluoromethyl)phenyl)-1,3,4-oxadiazole]
4.57 | Clc1ccc(-n2cnnn2)cc1 [Compound 216, 1-(4-chlorophenyl)tetrazole]
4.37 | c1nnc(-c2ccc(C3CC3)nc2)o1 [Compound 226, 2-(6-cyclopropyl-3-pyridyl)-1,3,4-oxadiazole]
7.03 | OCc1cn(-c2ccc(Cl)c(C(F)(F)F)c2)nn1 [Compound 9, (1-(4-chloro-3-(trifluoromethyl)phenyl)-1H-1,2,3-triazol-4-yl)methanol]
4.41 | OCc1cn(-c2ccccc2Cl)nn1 [Compound 20, (1-(2-chlorophenyl)-1H-1,2,3-triazol-4-yl)methanol]
6.06 | FC(F)(F)c1cc(-n2ccnn2)ccc1N1CCCC1 [Compound 286, 1-(4-(pyrrolidin-1-yl)-3-(trifluoromethyl)phenyl)-1H-1,2,3-triazole]
4.67 | CC(C)c1ccc(-n2cnnn2)cc1 [Compound 217, 1-(4-isopropylphenyl)tetrazole]
5.30 | COCc1cn(-c2ccc(Cl)c(Cl)c2)nn1 [Compound 43, 1-(3,4-dichlorophenyl)-4-(methoxymethyl)-1H-1,2,3-triazole]
8.10 | FC(F)(F)c1ccc(-c2c[nH]nn2)cc1C(F)(F)F [Compound 49, 4-(3,4-bis(trifluoromethyl)phenyl)-1H-1,2,3-triazole]
5.06 | OCc1cn(-c2ccc(C(F)(F)F)cc2)nn1 [Compound 271, (1-(4-(trifluoromethyl)phenyl)-1H-1,2,3-triazol-4-yl)methanol]
5.65 | OCc1cn(-c2cccc(C(F)(F)F)c2)nn1 [Compound 275, (1-(3-(trifluoromethyl)phenyl)-1H-1,2,3-triazol-4-yl)methanol]
6.39 | N#CCn1nc(-c2ccc(Cl)c(C(F)(F)F)c2Cl)oc1=O [Compound 244, 2-(5-(2,4-dichloro-3-(trifluoromethyl)phenyl)-2-oxo-1,3,4-oxadiazol-3(2H)-yl)acetonitrile]
4.43 | OCc1cn(-c2cccc3ccccc23)nn1 [Compound 25, (1-(naphthalen-1-yl)-1H-1,2,3-triazol-4-yl)methanol]
4.71 | c1ccc(-n2cnnn2)cc1 [Compound 134, 1-phenyl-1H-tetrazole]
5.74 | CC(O)c1cn(-c2ccc(Cl)c(C(F)(F)F)c2Cl)nn1 (stereo not shown) [Compound 310, 1-[1-[2,4-dichloro-3-(trifluoromethyl)phenyl]triazol-4-yl]ethanol]
5.24 | OCc1cn(-c2ccc(Cl)c(OCc3ccccc3)c2)nn1 [Compound 17, (1-(3-(benzyloxy)-4-chlorophenyl)-1H-1,2,3-triazol-4-yl)methanol]
5.53 | NCc1nnc(-c2ccccc2)o1 [Compound 140, (5-phenyl-1,3,4-oxadiazol-2-yl)methanamine]
4.61 | FC(F)(F)c1cc(-c2nnco2)cc(C2COC2)c1 [Compound 188, 2-[3-(oxetan-3-yl)-5-(trifluoromethyl)phenyl]-1,3,4-oxadiazole]
< 5.00 | OCc1cn(-c2ccc(Cl)c(OCC3CC3)c2)nn1 [Compound 18, (1-(4-chloro-3-(cyclopropylmethoxy)phenyl)-1H-1,2,3-triazol-4-yl)methanol]
5.29 | Clc1ccc(-c2cc[nH]n2)cc1Cl [Compound 55, 3-(3,4-dichlorophenyl)-1H-pyrazole]
4.47 | COc1ccc(-c2cc[nH]n2)c(O)c1 [Compound 57, 5-methoxy-2-(1H-pyrazol-3-yl)phenol]

pIC50 | Compound
7.44 | Cc1ccc(-c2nnc(O)o2)cc1OC(F)(F)F [Compound 79, 5-(4-methyl-3-(trifluoromethoxy)phenyl)-1,3,4-oxadiazol-2-ol]
5.97 | OCc1cn(-c2ccc(Cl)c(C3CC3)c2)nn1 [Compound 276, (1-(4-chloro-3-cyclopropylphenyl)-1H-1,2,3-triazol-4-yl)methanol]
4.75 | Clc1cccc(-c2cc[nH]n2)c1 [Compound 54, 3-(3-chlorophenyl)-1H-pyrazole]
6.59 | FC(F)(F)c1ccc(-c2nnco2)cc1C1COC1 [Compound 181, 2-[3-(oxetan-3-yl)-4-(trifluoromethyl)phenyl]-1,3,4-oxadiazole]
4.16 | OCc1cn(Cc2ccc(Cl)cc2)nn1 [Compound 162, (1-(4-chlorobenzyl)-1H-1,2,3-triazol-4-yl)methanol]
4.21 | ClCc1nnc(-c2ccc(Cl)c(Cl)c2)o1 [Compound 125, 2-(chloromethyl)-5-(3,4-dichlorophenyl)-1,3,4-oxadiazole]
5.09 | FC(F)(F)c1cc(-c2nnco2)ccn1 [Compound 222, 2-[2-(trifluoromethyl)-4-pyridyl]-1,3,4-oxadiazole]
8.24 | COc1nnc(-c2ccc(Cl)c(C(F)(F)F)c2Cl)o1 [Compound 243, 2-(2,4-dichloro-3-(trifluoromethyl)phenyl)-5-methoxy-1,3,4-oxadiazole]
4.35 | OCc1cn(-c2ccc3c(c2)OCCO3)nn1 [Compound 6, (1-(2,3-dihydrobenzo[b][1,4]dioxin-6-yl)-1H-1,2,3-triazol-4-yl)methanol]
< 5.00 | CC(C)(O)c1cn(-c2ccc(Cl)c(Cl)c2)nn1 [Compound 41, 2-(1-(3,4-dichlorophenyl)-1H-1,2,3-triazol-4-yl)propan-2-ol]
6.09 | Cc1ccc(-n2cc(CO)nn2)cc1C [Compound 5, (1-(3,4-dimethylphenyl)-1H-1,2,3-triazol-4-yl)methanol]
5.27 | COc1nnc(-c2cccc(Cl)c2)o1 [Compound 176, 2-(3-chlorophenyl)-5-methoxy-1,3,4-oxadiazole]
4.15 | Nc1nc(-c2ccccc2)no1 [Compound 141, 3-phenyl-1,2,4-oxadiazol-5-amine]
4.06 | Cn1ncc2ccc(-n3cc(CO)nn3)cc21 [Compound 15, (1-(1-methyl-1H-indazol-6-yl)-1H-1,2,3-triazol-4-yl)methanol]
5.23 | OCc1cn(-c2ccc(Cl)c(Cl)c2)cn1 [Compound 127, [1-(3,4-dichlorophenyl)imidazol-4-yl]methanol]
4.82 | NCc1cc(-c2cccc(Cl)c2)no1 [Compound 147, (3-(3-chlorophenyl)isoxazol-5-yl)methanamine]
5.46 | Cc1ccc(-c2csnn2)cc1 [Compound 145, 4-(p-tolyl)-1,2,3-thiadiazole]
4.07 | CCOc1cccc(-c2nnc(N)s2)c1 [Compound 48, 5-(3-ethoxyphenyl)-1,3,4-thiadiazol-2-amine]
6.85 | OCc1nnc(-c2ccc(Cl)c(C(F)(F)F)c2)o1 [Compound 296, (5-(4-chloro-3-(trifluoromethyl)phenyl)-1,3,4-oxadiazol-2-yl)methanol]
6.87 | FC(F)(F)c1c(Cl)ccc(-n2cnnn2)c1Cl [Compound 298, 1-(2,4-dichloro-3-(trifluoromethyl)phenyl)-1H-tetrazole]
4.35 | NCc1cn(-c2cc(Cl)cc(Cl)c2)nn1 [Compound 36, (1-(3,5-dichlorophenyl)-1H-1,2,3-triazol-4-yl)methanamine hydrochloride]
6.01 | O=C(O)c1cn(-c2ccc(Cl)c(C(F)(F)F)c2)nn1 [Compound 58, 1-(4-chloro-3-(trifluoromethyl)phenyl)-1H-1,2,3-triazole-4-carboxylic acid]
7.52 | O=C(O)c1cn(-c2ccc(Cl)c(C(F)(F)F)c2Cl)nn1 [Compound 304, 1-[2,4-dichloro-3-(trifluoromethyl)phenyl]triazole-4-carboxylic acid]
5.12 | OCCCc1cn(-c2ccc(Cl)c(C(F)(F)F)c2)nn1 [Compound 302, 3-[1-[4-chloro-3-(trifluoromethyl)phenyl]triazol-4-yl]propan-1-ol]

Compound | pIC50
Nc1nnc(-c2ccc(Cl)cc2)o1 [Compound 156, 2-amino-5-(4-chlorophenyl)-1,3,4-oxadiazole] | 4.92
NCc1cc(-c2ccccc2)no1 [Compound 143, (3-phenylisoxazol-5-yl)methanamine] | 4.94
Clc1ccc(-c2ccno2)cc1 [Compound 150, 5-(4-chlorophenyl)isoxazole] | 5.96
4-(4-(1,3,4-oxadiazol-2-yl)-2-(trifluoromethyl)phenyl)pyrrolidine [Compound 280] | 6.39
CC(O)Cc1cn(-c2ccc(Cl)c(C(F)(F)F)c2Cl)nn1 (stereo not shown) [Compound 305, 1-[1-[2,4-dichloro-3-(trifluoromethyl)phenyl]triazol-4-yl]propan-2-ol] | 5.88
Nc1nnc(-c2ccc(Cl)cc2)s1 [Compound 168, 5-(4-chlorophenyl)-1,3,4-thiadiazol-2-amine] | 5.08
FC(F)(F)c1c(Cl)cnc(-n2ccnn2)c1Cl [Compound 307, 3,5-dichloro-2-(triazol-1-yl)-4-(trifluoromethyl)pyridine] | 8.09
N#CNc1nnc(-c2ccc(Cl)c(C(F)(F)F)c2Cl)o1 [Compound 246, N-(5-(2,4-dichloro-3-(trifluoromethyl)phenyl)-1,3,4-oxadiazol-2-yl)cyanamide, ammonia salt] | 8.14
FC(F)(F)c1cc(-n2ccnn2)cc(Cl)c1Cl [Compound 309, 1-[3,4-dichloro-5-(trifluoromethyl)phenyl]triazole] | 6.97
